Results on 1 compound are retold here after article PMC10996005, “Identification and Development of Cyclic Peptide Inhibitors of Hypoxia Inducible Factors 1 and 2 That Disrupt Hypoxia-Response Signaling in Cancer Cells” (Journal of the American Chemical Society, 2024).

Test [1] deals with CAIX and VEGF genes in MCF-7 cells. The test is described as follows: qPCR of hypoxia-response genes in MCF-7 cells. It counts as cell-based. The conditions noted are these: hypoxic MCF-7 cells, 50 μM, vs DMSO-treated hypoxic cells. As to the method: The effect of our lead inhibitor on hypoxia-response signaling was measured by qPCR in cancer cell lines. Cells were treated with either 2 μM of an analogue of the HIF-2-specific inhibitor belzutifan, PT2399 (control), or 50 μM of cyclo-CRLII(4-iodo)F, incubated in hypoxia for […], and the levels of the hypoxia-response genes CAIX([41],[42]) and VEGF([43]) were measured by qPCR. We observed a 51% drop in CAIX transcription and a 43% drop in VEGF transcription in hypoxic MCF-7 (breast cancer) cells treated with 50 μM of cyclo-CRLII(4-iodo)F versus hypoxic MCF-7 cells treated with DMSO only (Figure 6e). […] We also observed a 49% drop in CAIX expression in hypoxic HeLa (cervical cancer) cells treated with cyclo-CRLII(4-iodo)F (Figure S9b). […] We observed a 35% drop in HIF-2-driven VEGF transcription in 786-O cells treated with 50 μM of cyclo-CRLII(4-iodo)F compared to a 50% decrease in 786-O cells treated with PT2399. […]
Realtime PCR (qPCR) Assay
Cells were plated on 6cm dishes at 80% confluency and incubated overnight under normoxic conditions. The cells were then treated with compound and incubated for 18 hours in hypoxic conditions. After treatment, the cells were washed with PBS and lysed under hypoxic conditions. The total RNA was extracted from the cells using a commercial RNA extraction kit (Fisher Scientific) following the manufacturer's instructions. A commercial reverse transcription kit (Promega) was used to generate cDNA. The MyTaq™ Mix master mix and appropriate primers targeting CAIX and VEGF were used to perform the qPCR reaction using a qPCR machine (Bio-Rad).
In general terms: In qPCR the cycle at which signal appears reflects the starting amount.

Another test has as its system CAIX in HeLa cells. The test is described as follows: qPCR of CAIX in HeLa cells. It counts as cell-based. The conditions noted are these: hypoxic HeLa cells, vs DMSO-treated hypoxic cells. As to the method: The effect of our lead inhibitor on hypoxia-response signaling was measured by qPCR in cancer cell lines. Cells were treated with either 2 μM of an analogue of the HIF-2-specific inhibitor belzutifan, PT2399 (control), or 50 μM of cyclo-CRLII(4-iodo)F, incubated in hypoxia for 24 h, and the levels of the hypoxia-response genes CAIX([41],[42]) and VEGF([43]) were measured by qPCR. We observed a 51% drop in CAIX transcription and a 43% drop in VEGF transcription in hypoxic MCF-7 (breast cancer) cells treated with 50 μM of cyclo-CRLII(4-iodo)F versus hypoxic MCF-7 cells treated with DMSO only (Figure 6e). […] We also observed a 49% drop in CAIX expression in hypoxic HeLa (cervical cancer) cells treated with cyclo-CRLII(4-iodo)F (Figure S9b). […] We observed a 35% drop in HIF-2-driven VEGF transcription in 786-O cells treated with 50 μM of cyclo-CRLII(4-iodo)F compared to a 50% decrease in 786-O cells treated with PT2399.
Figure S9. (a) The effect of cyclo-CRLII(4-iodo)F on the viability of T-ReX-293 cells. […]
The Flp-In-HRE-eYFP cells were plated on 24-well plates at 80% confluency and incubated overnight under normoxic conditions. […] An equal amount of the supernatant from each treatment was plated on a 96-well plate, and the emission of eYFP was measured using a microplate reader. […]

The target in the next test is T1, HIF-2α PAS-B domain (Homo sapiens, UniProt Q99814).
T1 construct: made in house
The test is described as follows: MST binding to the PAS-B domain of HIF-2α. The conditions noted are these: MST KD ratio. The protocol:
All reagents were purchased from Fisher Scientific or Sigma Aldrich UK unless specified otherwise.
Restriction enzymes and microbiology reagents were purchased from New England Biolabs Inc., Fisher Scientific (UK) or Promega (UK) and were used as directed by the manufacturer. Primers and oligonucleotides were synthesised by Integrated DNA Technologies (UK). DNA sequencing was carried out by Eurofins MWG Operon (Germany).
Construction of the RTHS and SICLOPPS library, screening, purification of recombinant HIF proteins, and the PLA was conducted as previously described in Miranda et al., J. Am. Chem. Soc., 2013, 135(28); […]
Protein labelling with MST dye
Protein was buffer exchanged from storage buffer into labelling buffer (0.1 M NaHCO3, pH 8.5) using a PD spintrap G-25 column (GE healthcare). The protein concentration was then adjusted to 20 µM.
The commercially sourced MST dye (NanoTemper) was prepared as a 470 µM solution in DMSO, which was then further diluted to 60 µM using labelling buffer. To the protein solution was added an equal volume of dye solution, and the labelling reaction was left for 1 hour in the dark at room temperature.
The labelled protein was separated from unreacted dye by elution through a PD minitrap G-25 column (GE healthcare). Labelled protein was then aliquoted and stored at -80 °C. Extent of labelling was measured by the absorbance obtained using the UV-vis mode on a NanoDrop ND-1000 Spectrophotometer (NanoDrop Technologies, USA).
Labelled protein was thawed on ice and diluted to 50 nM in assay buffer containing 50 mM Tris pH 8.0, 150 mM NaCl, 5% (v/v) glycerol, 1 mM TCEP and 0.05% TWEEN-20. The protein solution was then centrifuged at 12000 rpm for 15 minutes at 4 °C and left on ice. Compounds were prepared and serially diluted in DMSO at 10x assay concentration, before diluting to 2x assay concentration in assay buffer.
The 2x compound solutions were then mixed 1:1 (v/v) with 50 nM labelled protein solution and left to incubate for 1 hour at room temperature. Solutions were then loaded into Monolith NT.115 Premium Capillaries (NanoTemper) and placed in the sample tray. MST experiments were carried out

SMILES strings stand for the structures. Where a SMILES comes first, the peptide text is derived from it. [ ]: non-standard residue; d: D form. Phe(4-I) = N[C@@H](Cc1ccc(I)cc1)C(=O)O

T1 sequence (Q99814 240-350 limits assumed): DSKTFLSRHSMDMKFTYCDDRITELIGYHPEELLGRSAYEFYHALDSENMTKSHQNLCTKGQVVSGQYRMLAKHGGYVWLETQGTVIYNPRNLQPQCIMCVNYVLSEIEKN

Regarding `CC[C@H](C)[C@@H]1NC(=O)[C@H](CC(C)C)NC(=O)[C@H](CCCNC(=N)N)NC(=O)[C@H](CS)NC(=O)[C@H](Cc2ccc(I)cc2)NC(=O)[C@H]([C@@H](C)CC)NC1=O` [cyclo-CRLII(4-iodo)F] (cyclo(CRLII[Phe(4-I)])), in test [1], the “drop in CAIX transcription” value came to 51% and the “drop in VEGF transcription” value is 43%. In addition, the “drop in CAIX expression” value in the test with CAIX in HeLa cells came out at 49%. In addition, the “improvement in KD for HIF-2α PAS-B compared to the parent cyclic peptide” value at HIF-2α PAS-B domain was found to be 6.5 fold.
